Test results published in a melting point compilation (Tetko et al.).

`N#Cc1ccc2cccc(O)c2n1` gave a melting point of 131 to 136 °C.
Work on `CN(C)C(=S)Sc1ccc([N+](=O)[O-])cc1[N+](=O)[O-]` yielded a melting point of 152 °C.
Compound `CCOCCOCC` has a melting point of -74 °C.
Compound `Brc1ccc2[nH]ncc2c1` has a melting point of 123 to 124 °C.
In the case of `CC(C)(N)C(=O)O`, the melting point is reported as 335 °C.
With `CN1CCCN(c2ccc(C=O)cc2)CC1` the melting point was 44 to 46 °C.
For `CC(=O)N1CCSC1C(=O)NN` (configuration not stated), the melting point was 193 to 196 °C.
Compound `Nc1c(Br)cc(F)cc1Br` has a melting point of 65 °C.
Compound `O=C(Cl)c1ccccc1Oc1ccccc1` has a melting point of 37 to 39 °C.
`COc1ccc2c(C(=O)c3ccc(Cl)cc3)c(C)n(CC(=O)O)c2c1` gave a melting point of 242 °C.
Work on `CC(Br)C(Br)CBr` (configuration not stated) yielded a melting point of -19 °C.
Compound `NNC(=O)OCc1ccccc1` has a melting point of 68 °C.
`S=C=NC12CC3CC(CC(C3)C1)C2` showed a melting point of 166 to 168 °C.
For `Cc1cccc(C(=O)Cl)c1C`, the melting point was 2 °C.
`Cn1c(CO)cnc1S` showed a melting point of 220 to 222 °C.
With `Cc1ccc2sc(CO)cc2c1` the melting point was 93 to 94 °C.
With `Cc1cc(C)cc(P(c2cc(C)cc(C)c2)c2cc(C)cc(C)c2)c1` the melting point was 160 to 162 °C.
`CCC(C)c1ccccc1` (configuration not stated) showed a melting point of -75 °C.
In the case of `COC(=O)c1ccc(C(N)=O)cc1`, the melting point is reported as 206 °C.
With `CCCOC(=O)C1=C(C)NC(=S)NC1c1ccccc1` (configuration not stated) the melting point was 169 °C.
`CC(=O)c1csc2ccc(Br)cc12` showed a melting point of 87 to 90 °C.
With `CCCCC(CC)(CO)CO` the melting point was 43.8 °C.
With `NC(=C(N)c1ccccc1)c1ccccc1` the melting point was 108 °C.
For `CCOC(=O)CCCCCC(=O)O`, the melting point was 10 °C.
`CCOC(=O)c1ccc(-c2ccccc2)cc1` gave a melting point of 49 °C.
Compound `O=Cc1c[nH]c2c(C(=O)O)cccc12` has a melting point of 308 to 309 °C.
`CCOC(=O)Nc1cccc(OC(=O)Nc2ccccc2)c1` showed a melting point of 120 °C.
`COc1cccc2cc(C(C)=O)oc12` showed a melting point of 93 °C.
In the case of `O=C(O)c1cccc(S(=O)(=O)Oc2ccc3ccccc3c2)c1`, the melting point is reported as 155 °C.
For `c1ccc(N2CCN(c3ccccc3)CC2)cc1`, the melting point was 165 °C.
With `N#CC1(c2ccccc2)CCC(=O)CC1` the melting point was 115 °C.
Compound `NC(=O)c1ccnc(I)c1` has a melting point of 165 °C.
In the case of `Nc1nc(O)cc(O)n1`, the melting point is reported as 300 °C.
Work on `COc1cc(CCN)cc(OC)c1OC` yielded a melting point of 35.5 °C.
Work on `Nc1ccc(S(=O)(=O)c2ccc(NCCO)cc2)cc1` yielded a melting point of 131 °C.
For `O=[N+]([O-])c1ccccc1C=Cc1cc(/C=C/c2ccccc2[N+](=O)[O-])c([N+](=O)[O-])cc1[N+](=O)[O-]`, the melting point was 291 °C.
`Clc1ncnc2scc(-c3cccs3)c12` gave a melting point of 110 to 112 °C.
Work on `COc1ccc2c(c1O)-c1c3c(cc4c1C(C2)N(C)CC4)OCO3` (configuration not stated) yielded a melting point of 200 °C.
Compound `COc1cccc(C=Nc2n[nH]c(N=Cc3cccc(OC)c3O)c2Cc2ccc(Cl)cc2)c1O` has a melting point of 261 to 263 °C.
In the case of `NC(=S)c1c[nH]cn1`, the melting point is reported as 205 to 207 °C.
Work on `COc1ccccc1C1(C)CCc2oc3c(Br)cc(Br)cc3c2-c2oc(C)cc21` (configuration not stated) yielded a melting point of 194 °C.
`CC1CCC(C)CC1` (configuration not stated) gave a melting point of -36.9 °C.
For `Nc1ncnc(Nc2ccccc2)n1`, the melting point was 236 °C.
`Cc1cc(C(=O)O)oc1C` showed a melting point of 146 to 148 °C.
With `C[Si](C)(C)Oc1ccccc1` the melting point was -55 °C.
Compound `Clc1c2ccccc2nc2ccccc12` has a melting point of 121 °C.
`CCCCCC=CCC=CCCCCCCCC(=O)O` showed a melting point of -5 °C.
In the case of `COc1ccc(-c2nnc3n2NC(c2ccc([N+](=O)[O-])cc2)S3)cc1` (configuration not stated), the melting point is reported as 209 to 211 °C.
`COc1ccc(O)c(C(C)=O)c1` showed a melting point of 49 °C.
For `CCSc1nc(NC(C)C)nc(NC(C)C)n1`, the melting point was 105 °C.
Compound `S=C1NCCN1` has a melting point of 203 °C.
`Nc1ccc2c(c1)COCO2` showed a melting point of 69 °C.
Work on `CCCCOP(=O)(O)OCCCC` yielded a melting point of -13 °C.
`CC(=O)C(Cl)C(C)=O` gave a melting point of -15 °C.
For `CSc1ncc(Cl)c(C(=O)O)n1`, the melting point was 200 °C.
Compound `CCN(CCO)c1ccccc1` has a melting point of 37 °C.
In the case of `CC(=O)c1[nH]c2ccccc2c1C`, the melting point is reported as 146 to 148 °C.
In the case of `Cc1cc(Cl)ccc1OC(C)C(=O)Nc1ccc2nc(SCc3ccccc3)sc2c1` (configuration not stated), the melting point is reported as 168 °C.
With `COc1ccc(-c2nnc(CCl)o2)cc1` the melting point was 91 to 95 °C.
`O=c1[nH]c2ccccc2n1C1CCN(CCCC(c2ccc(F)cc2)c2ccc(F)cc2)CC1` gave a melting point of 216 °C.
With `NCCNC(=O)C(=O)NCc1ccccn1` the melting point was 257 °C.
Compound `O=C(O)Cc1cccc(Br)c1` has a melting point of 101 °C.
`Sc1ncccn1` gave a melting point of 230 °C.
With `ON=Cc1ccc(OC(F)(F)F)cc1` the melting point was 41 °C.
Work on `CC(C)(C)OC(=O)N[C@@H](Cc1c[nH]cn1)C(=O)O` yielded a melting point of 196 to 199 °C.
Compound `COC(=O)c1c2c(c(C)c3c1CC3=O)C(=O)C2` has a melting point of 168 °C.
`O=C1N(c2ccccc2)C(=O)[C@]2(Cl)C=C(c3ccccc3)[C@]12Cl` showed a melting point of 152 °C.
Compound `O=CNC(O)C(Cl)(Cl)Cl` (configuration not stated) has a melting point of 120 °C.
Work on `O=C(OC(=O)c1ccncc1)c1ccncc1` yielded a melting point of 133 °C.
Compound `C=CN(C)C(C)=O` has a melting point of -36 °C.
`OC1(C#CC#CC2(O)CCCCC2)CCCCC1` gave a melting point of 175 °C.
`CCC(=O)c1cc(C)ccc1O` showed a melting point of 2 °C.
With `Cc1cccc(N(C)C(=S)Oc2ccc3c(c2)CCC3)c1` the melting point was 94 °C.
`O=C(O)C=Cc1cccc(OC(F)(F)F)c1` showed a melting point of 93 to 96 °C.
With `CN1CCOc2cc(S(=O)(=O)Cl)cnc21` the melting point was 130 to 132 °C.
Compound `COc1ccc(C(C)=O)c(F)c1` has a melting point of 52 °C.
Work on `C#CC1(OC(C)=O)CCC2C3CCC4=CC(=NO)CCC4C3CCC21CC` (configuration not stated) yielded a melting point of 216 °C.
Work on `O=C(CCCC(=O)c1ccccc1)c1ccccc1` yielded a melting point of 64 to 67 °C.
In the case of `C#CCCCCCCC`, the melting point is reported as -50 °C.
With `O=[N+]([O-])/C=C/c1cccc(/C=C/[N+](=O)[O-])c1` the melting point was 203 to 204 °C.
`CCCCCCCCCCCCCCC(=O)OC` gave a melting point of 18.5 °C.
For `Cc1ccc(S(=O)(=O)Nc2ccc(Cl)cc2)cc1`, the melting point was 120 °C.
In the case of `COc1ccccc1C1CCN(c2ccc(C=CC(=O)O)cc2[N+](=O)[O-])CC1`, the melting point is reported as 204 to 206 °C.
Compound `O=P(O)(OCc1ccccc1)OCc1ccccc1` has a melting point of 80 °C.
For `COc1cccc(OC)c1SC`, the melting point was 79 to 80 °C.
Compound `S=C(Nc1cccc2ccccc12)Nc1cccc2ccccc12` has a melting point of 208 °C.
In the case of `CCCCCCCCC(C(=O)O)C(=O)O`, the melting point is reported as 116 °C.
Work on `Clc1ccc(N=Nc2ccccc2)cc1` yielded a melting point of 88 °C.
For `Cc1cc(CC(=O)O)n(C)c1C(=O)c1ccc(Cl)cc1`, the melting point was 178 °C.
With `COC(=O)C=C(C)OP(=O)(OC)OC` the melting point was 21 °C.
`O=S(=O)(O)c1cccc2cccc(Cl)c12` gave a melting point of 145 to 147 °C.
`CCC1(CC)OC(=O)C2CCC1(C)OC2(C)C` (configuration not stated) showed a melting point of 90 °C.
With `ClC(Cl)(Cl)c1ccc(C(Cl)(Cl)Cl)cc1` the melting point was 109 °C.
`CCCCCC(c1ccccc1)c1ccccc1` gave a melting point of -12 °C.
Work on `Oc1cccc2cc3cccc(O)c3c(O)c12` yielded a melting point of 178 °C.
In the case of `COc1ccc(C(=O)c2ccccc2Cl)cc1OC`, the melting point is reported as 125 to 126 °C.
In the case of `CC(C)(C)C(N)C(=O)O` (racemic), the melting point is reported as 300 °C.
With `Cc1ccc(-c2cc[nH]n2)cc1` the melting point was 82 to 86 °C.
`Cc1ccc(S(=O)(=O)C2(C(=O)OC(C)C)CC2)cc1` gave a melting point of 65.5 °C.
For `CCOc1ccc(OCC)c(N)c1`, the melting point was 85 °C.
In the case of `CCOC(=O)C(CSC(=O)C(C)(C)Br)NC(C)=O` (configuration not stated), the melting point is reported as > 20 °C.
`CC1(C)C(C=C(Cl)C(F)(F)F)C1C(=O)O` (configuration not stated) showed a melting point of 108 °C.
For `COc1ccc(NC(=O)C(C)=NNC(N)=S)cc1`, the melting point was 234 °C.
For `CC1CC(C)CC(C)C1` (configuration not stated), the melting point was -49.7 °C.
Compound `N#Cc1c(-c2ccc(Cl)cc2)n[nH]c1N` has a melting point of 216 to 217 °C.
With `CN(c1c(F)c(F)c(F)c(F)c1F)[N+](=O)[O-]` the melting point was 39.5 °C.
Compound `C1COCCOCCOCCOCCN1` has a melting point of 35 to 37 °C.
Work on `O=C(/C=C/Nc1ccccc1)c1ccc2c(c1)CCCC2` yielded a melting point of 175 °C.
`CC(C)(C)OC(=O)N[C@@H](Cc1ccc(Br)cc1)C(=O)O` gave a melting point of 118 °C.
With `Cc1ccc(O)c(C)n1` the melting point was 210 to 212 °C.
In the case of `CS(=O)(=O)C1CS(=O)(=O)CC1O` (configuration not stated), the melting point is reported as 200 to 210 °C.
With `O=S1(=O)Cc2ncc3ccccc3c2C1` the melting point was 210 °C.
For `NNC(N)=S`, the melting point was 183 °C.
In the case of `C=CC1CC2C=CC1C2` (configuration not stated), the melting point is reported as -80 °C.
In the case of `Cc1ccc(NC=C2C(=O)NN=C2c2c(O)c3ccccc3n(C)c2=O)cc1`, the melting point is reported as 282 °C.
`CSc1nc2ccccc2s1` gave a melting point of 44 °C.
`Cc1[nH]c(=O)n(C(C)(C)C)c(=O)c1Cl` showed a melting point of 176 °C.
Work on `CSc1nc(N)nc(-c2ccncc2)n1` yielded a melting point of 234 to 237 °C.
In the case of `Cc1cccc(Cl)c1I`, the melting point is reported as 27 °C.
In the case of `NC(CCCCCC(=O)O)C(=O)O` (racemic), the melting point is reported as 223 to 225 °C.
`Cc1nc(-c2ccccc2)c(C(=O)O)s1` gave a melting point of 201 to 203 °C.
Compound `CSc1nc2nc(SC)n(C)c2c(=O)n1-c1ccc(F)cc1` has a melting point of 177 to 179 °C.
With `OC1CCC(O)CC1` (configuration not stated) the melting point was 143 °C.
`N#Cc1c(F)cc(F)cc1F` gave a melting point of 57 to 61 °C.
`O=c1oc2ccccc2c(O)c1C1CCCc2ccccc21` (configuration not stated) showed a melting point of 174 °C.
Work on `CCCCCC(=O)Cl` yielded a melting point of -87 °C.
Work on `O=C(O)Cc1ccc(Cl)c(Cl)c1` yielded a melting point of 90 °C.
In the case of `CC(C)COc1ccc2ccccc2c1`, the melting point is reported as 31 °C.
With `CCCCCCCOc1ccc(C(=O)O)cc1` the melting point was 146 °C.
`Cc1ccc(COc2ccc(CC#N)cc2)cc1` showed a melting point of 121 to 123 °C.
In the case of `C=CCN1C(=O)C(CC(C)C)NC1=S` (configuration not stated), the melting point is reported as 210 °C.
Work on `FC(F)=C(F)C(F)(F)F` yielded a melting point of -156 °C.
With `OC1CC(c2ccccc2)NC2(CCCC2)C1` (configuration not stated) the melting point was 240 to 243 °C.
Compound `Cc1ccccc1CN` has a melting point of -30 °C.
With `O=[N+]([O-])c1cc([N+](=O)[O-])c(C=Nc2ccccc2)cc1C=Nc1ccccc1` the melting point was 165 °C.
For `CCCCCCCC(=O)OC1CCC2(C)C(=CCC3C2CCC2(C)C(C(C)CCCC(C)C)CCC32)C1` (configuration not stated), the melting point was 110 °C.
In the case of `O=C(O)c1cccc(F)c1O`, the melting point is reported as 147 °C.
